One assay has as its target p38alpha (Homo sapiens (Human), UniProt Q16539). The experiment in a line: Cell-free kinase assay (ALPHA technology), p38alpha. The format is biochemical. The note with it: 10 μM ATP. The protocol: (§1) The inhibitory effect of the compounds according to the invention was tested on various serine/threonine, tyrosine and lipid kinases in enzymatic assays. Recombinant human kinases such as, for example, Erk2, PI3Kalpha, -beta, -gamma, -delta, p38alpha, p38gamma, Jnk1, Jnk2 and others were used in this case, partly as full-length kinases, partly as shortened fragments, but at least consisting of the functional kinase domains. The commercial kinase proteins (Proqinase, Upstate) were used as recombinant fusion proteins with GST (glutathion-S-transferase) or His-Tag. Depending on the type of substrate, the various kinase reactions were quantified by means of suitable ALPHA™ beads (Perkin-Elmer).
(§2) The substance testing is described in detail hereinafter for the Erk assay.
(§3) a) MAPK-ALPHAs (e.g. Erk2): the test substance, 0.625 ng Erk2 (#14-173, Upstate), 10 μM ATP and 15 nM biotinylated MBP (myelin basic protein) substrate were incubated on a 384-well Optiplate (Perkin-Elmer) in a volume of 15 μl for 1 h in 25 mM Tris, 10 mM MgCl2, 0.1% Tween-20, 100 μM NaVO4, 2 mM DTT at pH 7.5. The kinase reaction was then stopped by adding 10 μl of the ALPHA bead mixes (10 μg/ml, #6760617/Perkin-Elmer) pre-incubated with anti-phospho MBP antibody (320 pM, #05-429/Upstate) in 25 mM Tris, 200 mM NaCl, 110 nM EDTA and 0.3% BSA and left to stand overnight. b) PI3K-ALPHAs (e.g. PI3Kalpha): the test substance, 1 ng PI3Kalpha (#14-602, Upstate), 100 μM ATP and 20 μM PIP2 substrate (#P4508, Echelon) were incubated on a 384-well Optiplate (Perkin-Elmer) for 1 h in 50 mM Hepes, 50 mM NaCl, 5 mM MgCl2, 0.05% Chaps, 5 mM DTT at pH 7.4. The kinase reaction was then stopped by adding ALPHA bead mixes (10 μg/ml, #6760603/Perkin-Elmer) pre-incubated with 1 nM GST:Grp1 fusion protein (Upstate) and 15 nM biotinylated PIP3 (#C-39B6/Echelon) in 50 mM Hepes, 50 mM NaCl, 50 mM EDTA and 0.1% BSA and left to stand overnight.
(§4) The fluorescence was detected the following morning in a Fusion™^aα-system (Perkin-Elmer).
(§5) The %-inhibition values per substance concentration were calculated by means of the following formula from the raw data determined in the Fusion™ ? :
(§6) Eight determinations were made for each control and two for the substance samples. The 0% control either contains no ATP or no substrate, the 100% control (fully active kinase) contains no test substance. The IC50 values were determined using GraphPadPrism.

Another assay deals with Erk2 (Homo sapiens, UniProt P28482). Description: Cell-free kinase assay (ALPHA technology), Erk2. The format is biochemical. The settings on record: 10 μM ATP. As to the method:
The inhibitory effect of the compounds according to the invention was tested on various serine/threonine, tyrosine and lipid kinases in enzymatic assays. […] The commercial kinase proteins (Proqinase, Upstate) were used as recombinant fusion proteins with GST (glutathion-S-transferase) or His-Tag. Depending on the type of substrate, the various kinase reactions were quantified by means of suitable ALPHA™ beads (Perkin-Elmer). The substance testing is described in detail hereinafter for the Erk assay. […] a) MAPK-ALPHAs (e.g. […] The kinase reaction was then stopped by adding ALPHA bead mixes (10 μg/ml, #6760603/Perkin-Elmer) pre-incubated with 1 nM GST:Grp1 fusion protein (Upstate) and 15 nM biotinylated PIP3 (#C-39B6/Echelon) in 50 mM Hepes, 50 mM NaCl, 50 mM EDTA and 0.1% BSA and left to stand overnight. The fluorescence was detected the following morning in a Fusion™^aα-system (Perkin-Elmer). […] Eight determinations were made for each control and two for the substance samples. […] The IC50 values were determined using GraphPadPrism.

Another assay deals with Jnk1 + Jnk2. The experiment in a line: Cell-free kinase assay (ALPHA technology), Jnk1 + Jnk2. The format is biochemical, human. The settings on record: 10 μM ATP. The protocol:
as §1, §2, §3, §4, §5, §6

In a further assay the target is PI3Kalpha (Homo sapiens (Human), UniProt P42336). Description: Cell-free kinase assay (ALPHA technology), PI3Kalpha. The assay is classed as biochemical. The settings on record: 100 μM ATP. The protocol: as §1, §2, §3, §4, §5, §6

Some results are limits rather than exact numbers.

From patent publication US8937068B2, “Pyridopyrazine derivatives and their use” (Zentaris GmbH, priority 2005, dated 2015) come the findings set out here.

In general, IC50 refers to the point on the concentration scale where inhibition reaches its midpoint.

p38alpha, sequence (Q16539 whole entry, the tested form may be a part): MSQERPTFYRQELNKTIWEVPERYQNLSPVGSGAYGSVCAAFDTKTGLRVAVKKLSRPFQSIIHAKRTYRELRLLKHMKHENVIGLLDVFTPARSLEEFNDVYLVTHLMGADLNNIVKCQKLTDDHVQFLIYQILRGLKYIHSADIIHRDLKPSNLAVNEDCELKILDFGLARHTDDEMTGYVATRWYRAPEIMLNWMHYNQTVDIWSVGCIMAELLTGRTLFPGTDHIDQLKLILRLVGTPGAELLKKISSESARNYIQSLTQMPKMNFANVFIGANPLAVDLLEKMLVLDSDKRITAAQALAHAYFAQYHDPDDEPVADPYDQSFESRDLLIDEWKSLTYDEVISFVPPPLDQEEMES
Erk2, sequence (P28482 2-360 limits assumed): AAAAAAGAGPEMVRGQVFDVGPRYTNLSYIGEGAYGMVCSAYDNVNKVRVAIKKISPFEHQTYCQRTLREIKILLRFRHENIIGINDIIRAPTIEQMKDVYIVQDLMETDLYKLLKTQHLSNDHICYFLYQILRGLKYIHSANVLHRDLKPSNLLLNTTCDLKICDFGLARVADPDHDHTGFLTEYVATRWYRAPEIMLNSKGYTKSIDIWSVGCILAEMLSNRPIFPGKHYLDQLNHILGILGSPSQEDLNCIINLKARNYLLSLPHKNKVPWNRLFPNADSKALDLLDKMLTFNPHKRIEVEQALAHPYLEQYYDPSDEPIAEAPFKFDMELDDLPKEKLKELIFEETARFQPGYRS
PI3Kalpha, sequence (P42336 whole entry): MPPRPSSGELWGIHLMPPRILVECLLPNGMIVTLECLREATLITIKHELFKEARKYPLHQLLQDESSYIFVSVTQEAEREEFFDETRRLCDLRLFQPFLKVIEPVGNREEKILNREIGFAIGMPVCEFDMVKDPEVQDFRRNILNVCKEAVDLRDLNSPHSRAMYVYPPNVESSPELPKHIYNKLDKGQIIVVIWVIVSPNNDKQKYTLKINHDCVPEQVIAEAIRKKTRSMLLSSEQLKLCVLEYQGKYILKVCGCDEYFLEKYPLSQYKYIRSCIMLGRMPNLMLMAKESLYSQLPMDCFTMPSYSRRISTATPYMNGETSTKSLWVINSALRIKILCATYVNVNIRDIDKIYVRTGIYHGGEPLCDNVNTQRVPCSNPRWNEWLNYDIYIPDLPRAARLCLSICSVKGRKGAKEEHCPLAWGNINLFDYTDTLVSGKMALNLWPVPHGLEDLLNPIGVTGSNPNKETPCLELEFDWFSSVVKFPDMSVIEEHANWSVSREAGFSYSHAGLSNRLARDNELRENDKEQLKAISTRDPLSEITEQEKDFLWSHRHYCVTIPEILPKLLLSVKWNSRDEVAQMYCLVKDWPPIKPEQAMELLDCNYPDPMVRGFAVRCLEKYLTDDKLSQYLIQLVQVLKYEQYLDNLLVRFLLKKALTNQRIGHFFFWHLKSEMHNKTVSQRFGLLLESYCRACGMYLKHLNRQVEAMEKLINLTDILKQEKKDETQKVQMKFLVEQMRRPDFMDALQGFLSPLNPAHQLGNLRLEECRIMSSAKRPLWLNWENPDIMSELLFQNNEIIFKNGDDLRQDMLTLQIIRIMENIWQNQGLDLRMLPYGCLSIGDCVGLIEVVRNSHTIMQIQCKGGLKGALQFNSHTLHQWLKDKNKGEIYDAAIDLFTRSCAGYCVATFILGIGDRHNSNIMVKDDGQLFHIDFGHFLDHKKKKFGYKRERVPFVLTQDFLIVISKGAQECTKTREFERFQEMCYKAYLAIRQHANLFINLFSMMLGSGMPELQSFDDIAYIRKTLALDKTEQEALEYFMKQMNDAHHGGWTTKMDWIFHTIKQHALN
PI3Kalpha, sequence (P27986 whole entry partner): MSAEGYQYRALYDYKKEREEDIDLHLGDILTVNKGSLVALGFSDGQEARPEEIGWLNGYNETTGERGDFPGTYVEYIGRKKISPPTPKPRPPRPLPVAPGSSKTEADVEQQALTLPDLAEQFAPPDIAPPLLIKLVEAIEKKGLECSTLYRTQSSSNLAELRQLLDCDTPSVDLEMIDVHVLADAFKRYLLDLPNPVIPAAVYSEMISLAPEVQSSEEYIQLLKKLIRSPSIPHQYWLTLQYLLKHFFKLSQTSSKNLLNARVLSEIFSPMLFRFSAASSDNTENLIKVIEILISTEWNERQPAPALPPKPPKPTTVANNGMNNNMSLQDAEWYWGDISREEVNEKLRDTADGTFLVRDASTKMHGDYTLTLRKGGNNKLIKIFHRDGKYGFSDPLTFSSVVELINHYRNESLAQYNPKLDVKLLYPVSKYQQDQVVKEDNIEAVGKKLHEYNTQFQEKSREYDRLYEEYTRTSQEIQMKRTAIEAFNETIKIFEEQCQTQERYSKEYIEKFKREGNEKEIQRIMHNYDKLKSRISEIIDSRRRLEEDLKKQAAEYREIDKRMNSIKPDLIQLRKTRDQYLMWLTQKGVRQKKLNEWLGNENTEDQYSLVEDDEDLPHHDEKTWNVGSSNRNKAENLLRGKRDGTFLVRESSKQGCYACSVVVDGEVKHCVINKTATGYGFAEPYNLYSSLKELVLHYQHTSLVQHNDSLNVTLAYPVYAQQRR

Consider `CCNC(=O)Nc1ccc2ncc(-c3ccc(N)c(OC)c3)nc2n1` [Compound 154, 1-[3-(4-Amino-3-methoxy-phenyl)-pyrido[2,3-b]pyrazin-6-yl]-3-ethyl-urea], for which the IC50 against p38alpha is more than 31.6 µM; at Erk2, 0.592 µM; with Jnk1 + Jnk2, 2.8 µM; on PI3Kalpha, 0.984 µM.
The like results for `CCNC(=O)Nc1ccc2ncc(Nc3ccn(C)n3)nc2n1` [Compound 166, 1-Ethyl-3-[3-(1-methyl-1H-pyrazol-3-ylamino)-pyrido[2,3-b]pyrazin-6-yl]-urea] were, in that order, more than 100 µM, 13.7 µM, 21.9 µM and 1.3 µM.
The like results for `CCNC(=O)Nc1ccc2ncc(Nc3ccc(Cl)cc3)nc2n1` [Compound 159, 1-[3-(4-Chloroo-phenylamino)-pyrido-[2,3-b]pyrazin-6-yl]-3-ethyl-urea] were, in that order, more than 100 µM, more than 100 µM, 12.6 µM and 0.147 µM.
Turning to `CCNC(=O)Nc1ccc2ncc(Nc3cc(C(=O)O)cc(C(F)(F)F)c3)nc2n1` [Compound 189, 3-[6-(3-Ethyl-ureido)-pyrido[2,3-b]-pyrazin-3-ylamino]-5-trifluoromethyl-benzoic acid], the IC50 against p38alpha was more than 100 µM; on Erk2 it was 20.3 µM; in the assay with Jnk1 + Jnk2 it was 6.2 µM; against PI3Kalpha, 0.237 µM.
As to `CCNC(=O)Nc1ccc2ncc(-c3ccc(N)cc3)nc2n1` [Compound 82, 1-[3-(4-Amino-phenyl)-pyrido[2,3-b]pyrazin-6-yl]-3-ethyl-urea], the IC50 was more than 31.6 µM against p38alpha, 0.944 µM at Erk2, 1.1 µM with Jnk1 + Jnk2 and 6.4 µM at PI3Kalpha.
Taken in the same sequence, the figures for `CCNC(=O)Nc1ccc2ncc(Nc3ccc(C)cn3)nc2n1` [Compound 165, 1-Ethyl-3-[3-(5-methyl-pyridin-2-yl-amino)-pyrido[2,3-b]pyrazin-6-yl]-urea] were more than 100 µM, 19.4 µM, 27.1 µM and 1.2 µM.
Taken in the same sequence, the figures for `CCNC(=O)Nc1ccc2ncc(Nc3ccc(F)cc3)nc2n1` [Compound 167, 1-Ethyl-3-[3-(4-fluoro-phenylamino)-pyrido[2,3-b]pyrazin-6-yl]-urea] were more than 100 µM, more than 100 µM, 27.3 µM and 1.1 µM.
The like results for `CCNC(=O)Nc1ccc2ncc(Nc3ccc4ccccc4c3)nc2n1` [Compound 178, 1-Ethyl-3-[3-(naphthalin-2-ylamino)-pyrido[2,3-b]pyrazin-6-yl]-urea] were, in that order, more than 31.6 µM, more than 100 µM, 2.3 µM and 0.164 µM.
As to `CCNC(=O)Nc1ccc2ncc(Nc3ccc(OC)cc3)nc2n1` [Compound 158, 1-Ethyl-3-[3-(4-methoxy-phenylamino)-pyrido[2,3-b]pyrazin-6-yl]-urea], the IC50 on p38alpha is more than 100 µM; at Erk2, more than 100 µM; in the assay with Jnk1 + Jnk2 it was more than 31.6 µM; against PI3Kalpha, 0.186 µM.
As to `CCNC(=O)Nc1ccc2ncc(Nc3ccc(OC)nc3)nc2n1` [Compound 190, 1-Ethyl-3-[3-(6-methoxy-pyridin-3-ylamino)-pyrido[2,3-b]pyrazin-6-yl]-urea], the IC50 on p38alpha was more than 100 µM; at Erk2, more than 100 µM; with Jnk1 + Jnk2, 31 µM; at PI3Kalpha, 0.271 µM.
For `CCNC(=O)Nc1ccc2ncc(Nc3cccc(OC(C)C)c3)nc2n1` [Compound 182, 1-Ethyl-3-[3-(3-isopropoxy-phenylamino)-pyrido[2,3-b]pyrazin-6-yl]-urea], the IC50 was more than 100 µM on p38alpha, more than 31.6 µM at Erk2, 21 µM in the assay with Jnk1 + Jnk2 and 1.1 µM on PI3Kalpha.
`CCN(C(C)=O)C(=O)Nc1ccc2ncc(-c3ccccc3)nc2n1` [Compound 46, 1-Acetyl-1-ethyl-3-(3-phenyl-pyrido[2,3-b]pyrazin-6-yl)-urea]: the IC50 was 0.495 µM against p38alpha, 9.5 µM against Erk2, more than 100 µM in the assay with Jnk1 + Jnk2 and more than 100 µM at PI3Kalpha.
Consider `CCNC(=O)Nc1ccc2ncc(Nc3ccccc3C)nc2n1` [Compound 160, 1-Ethyl-3-(3-o-tolylamino-pyrido[2,3-b]-pyrazin-6-yl)-urea], for which the IC50 on p38alpha is more than 31.6 µM; at Erk2, 5.8 µM; in the assay on Jnk1 + Jnk2, more than 31.6 µM; on PI3Kalpha it was 2.9 µM.
For `CCNC(=O)Nc1ccc2ncc(Nc3cc(OC)cc(OC)c3)nc2n1` [Compound 180, 1-[3-(3,5-Dimethoxy-phenylamino)-pyrido[2,3-b]pyrazin-6-yl]-3-ethyl-urea], the IC50 on p38alpha is more than 100 µM; at Erk2, 15.7 µM; in the assay on Jnk1 + Jnk2 it was 8.6 µM; on PI3Kalpha it was 1.1 µM.
The like results for `CCNC(=O)Nc1ccc2ncc(Nc3ccc(CC)cc3)nc2n1` [Compound 162, 1-Ethyl-3-[3-(4-ethyl-phenylamino)-pyrido[2,3-b]pyrazin-6-yl]-urea] were, in that order, more than 100 µM, more than 100 µM, more than 31.6 µM and 0.19 µM.
As to `CCNC(=O)Nc1ccc2ncc(Nc3ccc(C#N)cc3)nc2n1` [Compound 192, 1-[3-(4-Cyano-phenylamino)-pyrido-[2,3-b]pyrazin-6-yl]-3-ethyl-urea], the concentration for half-maximal inhibition (IC50) against p38alpha is more than 100 µM; against Erk2 it was 31.6 µM; with Jnk1 + Jnk2 it was 1.8 µM; against PI3Kalpha it was 0.422 µM.
Taken in the same sequence, the figures for `CCNC(=O)Nc1ccc2ncc(-c3cccc(C(N)=O)c3)nc2n1` [Compound 155, 3-[6-(3-Ethyl-ureido)-pyrido[2,3-b]-pyrazin-3-yl]-benzamide] were more than 100 µM, more than 100 µM, 7.8 µM and 5 µM.
Taken in the same sequence, the figures for `CCNC(=O)Nc1ccc2ncc(-c3ccc(C#N)s3)nc2n1` [Compound 174, 1-[3-(5-Cyano-thiophen-2-yl)-pyrido[2,3-b]pyrazin-6-yl]-3-ethyl-urea] were more than 31.6 µM, 4.9 µM, 4.6 µM and 3 µM.
As to `CCNC(=O)Nc1ccc2ncc(Nc3ccc(OC)c(OC)c3)nc2n1` [Compound 187, 1-[3-(3,4-Dimethoxy-phenylamino)-pyrido[2,3-b]pyrazin-6-yl]-3-ethyl-urea], the IC50 at p38alpha was more than 31.6 µM; against Erk2, 16.6 µM; in the assay on Jnk1 + Jnk2 it was more than 100 µM; at PI3Kalpha, 0.712 µM.
With `CCNC(=O)Nc1ccc2ncc(-c3ccc(O)cc3Cl)nc2n1` [Compound 170, 1-[3-(2-Chloro-4-hydroxy-phenyl)-pyrido[2,3-b]pyrazin-6-yl]-3-ethyl-urea], the IC50 was more than 31.6 µM at p38alpha, 0.103 µM against Erk2, 1.1 µM in the assay with Jnk1 + Jnk2 and 2.4 µM against PI3Kalpha.
On to `CNC(=S)Nc1ccc2ncc(-c3ccc(N)cc3)nc2n1` [Compound 44, 1-[3-(4-Amino-phenyl)-pyrido[2,3-b]pyrazin-6-yl]-3-methyl-thiourea], for which the IC50 against p38alpha is more than 100 µM; on Erk2, 2.5 µM; in the assay on Jnk1 + Jnk2, 1.5 µM; on PI3Kalpha it was 3.8 µM.
